This note sets out measurements from patent publication US5273903A, “Biotechnological process for the production of S-(+)-2,2-dimethylcyclopropanecarboxamide” (Lonza Ltd., priority 1991, dated 1993).

For assay [1], the system named is cell-free enzyme extract (R-(-)-2,2-DMCPCA-hydrolase). As to the kind of experiment: Activity of cell-free enzyme extract. The format is biochemical, Comamonas acidovorans A:18. As to conditions: 30 °C; phosphate buffer 10 mM pH 7.0; 0.2 percent by weight R,S-(±)-2,2-DMCPCA; about 0.8 mg of protein. The protocol:
After induction, the cells of Comamonas acidovorans A:18 were concentrated to an optical density at 650 nm from 210 to 95 ml in the HEPES buffer (10 mM, pH 7.0). Then, the cells were broken down twice in the French press at a pressure of 1200 bars. To obtain a cell-free enzyme extract, all of this material was then centrifuged at 20,000 rpm for 20 minutes. In this cell-free enzyme extract, the amount of protein (measured according to the Bradford method) was then determined as 39.3 mg of protein/ml. To determine the activity of these cell-free enzymes, 20 microliters (about 0.8 mg of protein) of this cell-free enzyme extract was taken up in 4 ml of phosphate buffer (10 mM, pH 7.0), containing 0.2 percent by weight of R,S-(±)-2,2-DMCPCA and incubated at 30° C. Here, 2.5 g of R-(-)-2,2-DMCPCA/h/g of protein (3.64 micromol/min/g of protein) was converted to the corresponding acid.

Assay [2] relates to R-(-)-2,2-DMCPCA-hydrolase. As to the kind of experiment: Hydrolase activity during biotransformation with whole cells. The settings on record: 0.2 percent by weight substrate; otherwise conditions of Example 3. The class given is cell-based, Bacterium sp. VIII:II (DSM No. 6316). The procedure:
(§1) To determine the activity of the hydrolase, the microorganism suspension was adjusted to an optical density of 0.5 at 650 nm. As a medium, a phosphate buffer (10 mmol), pH 7.0, with 0.2 percent by weight of R,S-2,2-DMCPCA, was used. This suspension was incubated for 3 hours at 30° C. with shaking. The NH4^+ released by the hydrolase or the R-(-)-2,2-DMCPCS was measured and the activity reacted as g of R-(-)-2,2-DMCPCA was expressed /1/h/ optical density at 650 nm, provided that 1 mmol of formed NH4^+ equals 1 mmol of reacted R-(-)-2,2-DMCPCA.
(§2) Comamonas acidovorans A:18 was incubated on mineral salt medium-agar plates with glycerin as a C-source and ammonium sulfate as an N-source for 2 days at 30° C. With these plated-out microorganisms, an initial culture medium with the same composition was inoculated and incubated for 2 days at 30° C. […] After an incubation of about 25 hours at 37° C., R-(-)-2,2-DMCPCA was completely reacted to R-(-)-2,2-DMCPCS, which corresponded to an optical purity (ee) of 100 percent and an analytically measured yield in S-(+)-2,2-DMCPCA of 46.7 percent. […]
In contrast to Example 3, the biotransformation in this microorganism was performed with 0.2 percent by weight of R,S-(±)-2,2-DMCPCA, and the activity of the hydrolase was determined as 0.13 g/1/h/OD650nm.

The subject of assay [3] is R-(-)-2,2-DMCPCA-hydrolase. The description is as above. The format is cell-based, Pseudomonas sp. NSAK:42 (DSM No. 6433). The settings on record: 0.2 percent by weight substrate; otherwise conditions of Example 3. The procedure: as §1, §2
Analogously to Example 1, Pseudomonas sp. […] The biotransformation was performed with 0.2 percent by weight of R,S-(±)-2,2-DMCPCA, and the activity of the hydrolase was determined as 0.34 g/1/h/OD650nm.

Assay [4] deals with R-(-)-2,2-DMCPCA-hydrolase. As to the kind of experiment: Determination of activity of R-(-)-2,2-DMCPCA-hydrolase, microorganism suspension. The format is cell-based, Comamonas acidovorans A:18 (DSM No. 6315). The settings on record: phosphate buffer 10 mmol pH 7.0, 0.2 percent by weight substrate, 3 hours. The protocol:
To determine the activity of the hydrolase, the microorganism suspension was adjusted to an optical density of 0.5 at 650 nm. As a medium, a phosphate buffer (10 mmol), pH 7.0, with 0.2 percent by weight of R,S-2,2-DMCPCA, was used. […] The NH4^+ released by the hydrolase or the R-(-)-2,2-DMCPCS was measured and the activity reacted as g of R-(-)-2,2-DMCPCA was expressed /1/h/ optical density at 650 nm, provided that 1 mmol of formed NH4^+ equals 1 mmol of reacted R-(-)-2,2-DMCPCA.

Assay [5] concerns immobilized biocatalyst (polyethylene imine/glutaraldehyde treated cells). As to the kind of experiment: Activity of immobilized cells (immobilized biocatalyst). The class given is cell-based, Comamonas acidovorans A:18. As to conditions: cells immobilized by polyethylene imine/glutaraldehyde treatment. The protocol: After induction (corresponding to Example 3), the cells of Comamonas acidovorans A:18, were harvested. These cells were immobilized by a polyethylene imine/glutaraldehyde treatment (corresponding to Czechoslovakian Patent No. 251,111). […] The dry weight of the biocatalyst corresponded to 32 percent of the moist weight. Then, the biocatalyst (with 55 g moist weight) was suspended in 800 ml of boric acid (10 mM, pH 9.0) with 16 g of R,S-(±)-2,2-DMCPCA. After an incubation time of 68.8 hours at 37 C and at a stirring speed of 200 rpm, R-(-)-2,2-DMCPCA was completely reacted to R-(-)-2,2-DMCPCS, which corresponded to an optical purity (ee) of 98.2 percent and an analytically measured yield in S-(+)-2,2-DMCPCA of 40 percent.

Molecules are shown by their SMILES. “And” between values parts separate entries of the source, which are not always exact repeats. Identical values can stand only once.

Turning to `CC1(C)C[C@H]1C(N)=O` [R-(-)-2,2-DMCPCA, R-(-)-2,2-dimethylcyclopropanecarboxamide], the “converted to the corresponding acid” value in assay [1] is 2.5 g/h/g of protein and 3.64 micromol/min/g of protein.
For `CC1(C)CC1C(N)=O` (racemic) [R,S-(±)-2,2-DMCPCA, R,S-(±)-2,2-dimethylcyclopropanecarboxamide], the “activity of the hydrolase” value in assay [2] is on record as 0.13 g/1/h/OD650nm; in assay [3], 0.34 g/1/h/OD650nm. In addition, the “hydrolase Activity” value in assay [4] (25 °C) worked out at 0.25 g/l/h/OD650; in assay [4] (30 °C) it was 0.5 g/l/h/OD650; in assay [4] (37 °C), 1.0 g/l/h/OD650; in assay [4] (45 °C), 1.5 g/l/h/OD650; in assay [4] (48 °C), 1.8 g/l/h/OD650; in assay [4] (55 °C) it was 1.9 g/l/h/OD650. Also, the “hydrolase Activity” value in assay [4] (65 °C) was 0 g/l/h/OD650. For the same molecule, the “activity of the immobilized biocatalyst” value in assay [5] was 1.6 micromol/min g of dry weight.
